Experimental findings from patent publication US10668048B2, “Compounds for inhibiting bacterial growth via phosphatidylglycerol binding” (Wichita State University, priority 2016, dated 2020) are described below.

What all share (assay type): cell-based
Data set [1] relates to Gram-positive, Gram-negative, and Mycobacteria. The data set is described as follows: Growth curves in BHI culture with liptin 3e. The source says:
Growth curves were generated from liquid shake-flask cultures using absorbance measurements at 600 nm at different concentrations of liptin 3e. Uninoculated control flasks were used as blanks. Absorbance values of 0.1 OD unit was considered reasonable threshold for positive growth. […] Liptin exposure appears to stop bacterial growth, as evidenced by long lag phases, which increase with liptin concentration. In most cases, cultures recover, but growth rates and maximum cell densities are decreased with liptin treatment.
Bacterial growth rates were reduced by liptin 3e treatment in a concentration-dependent manner. Rates were determined as the slope of the log phase of the growth curve, after the lag phase. An exponential relationship exists with marginally significant differences (p<0.1).
Maximum culture densities represent the carrying capacity of a culture flask.

For the next data set, the system named is E. Coli (JMR 223-MC4100). Description: MIC in LB culture. The following applies: overnight 37° C. On the procedure: An E. Coli (JMR 223-MC4100) plate was grown up overnight in LB agar at 37° C. A good colony was selected and added to 5 mL LB growth media. This was incubated at 37° C. with shaking at 250 rpm until the solution reaches an OD of at least 0.5 or higher at 600 nm. A final solution was diluted 500× to an OD of 0.001, correlating to a CFU of 1×10^6. 5 ml solutions of the diluted bacterial broth were measured out. Liptins were added to make solutions of 20 μM, 15 μM, 10 μM, 5 μM, 4 μM, 3 μM, 2 μM, and 1 μM (This means adding 0.2 mL, 0.15 mL, 0.1 mL, 0.05 mL, 0.04 mL, 0.03 mL, 0.02 mL, 0.01 mL of the 500 μM solution). Cultures were allowed to incubate overnight at 37° C. with shaking at 250 rpm. The following day, cultures were analyzed to evaluate the presence or absence of bacterial growth by spectrophotometry at 600 nm (0.66 mg of liptin in 0.95 mL of water; 0.15 OD Diluted 150× to OD of 0.001). […] Growth was not observed in the 2 μM and up solutions. See FIGS. 11A-11B for a visual image of the E. coli cultures.

Data set [2] relates to S. aureus plasma membrane. Description: Plasma membrane depolarization, DiS-C2(5) fluorescence. The following applies: 0.69-2.6 μM added at 90 s. The procedure: The graph in FIGS. 15A-15C represents the depolarization of S. aureus plasma membrane measured by an increase in the fluorescence of 3,3-diethylthiodicabodyanine iodide. The dye, which has direct access to the Gram-positive plasma membrane, becomes highly fluorescent in membranes where polarization is lost. […] The membrane effects were measured against the known membrane-disruptive agent, cationic steroid antimicrobial-25 (CSA-25), one of a group of cholic acid-derived antimicrobial also known as ceragenins. This assay measured the effects of the Ammonium-picket porphyrin alone those of CSA-25 alone or a combination of Ammonium-picket porphyrin and CSA-25.
Bacterial cultures were grown overnight in TSB at 37° C. Cells were harvested by centrifugation and washed in a buffer containing 250 mM sucrose, 5 mM MgSO4, and 10 mM potassium phosphate (pH 7.0). After three washings, pellets were re-suspended in the same buffer. […] Fluorescence measurements were taken at 30-s intervals before and after addition of ceragenins. FIG. 15A illustrates the depolarization of S. aureus measured by an increase in fluorescence of 3,3′ diethylthiodicarbodyanine iodide (DiS-C2(5)). […]
FIG. 15B illustrates the depolarization of S. aureus measured by an increase in fluorescence of 3,3′ diethylthiodicarbodyanine iodide. […]

The subject of data set [3] is E. coli BL 21 (Tuner pLysS). The data set is described as follows: Tetracycline-induced YqhD expression, gel electrophoresis. The following applies: 10 μM.
In data set [4] the test system is HepG2 human hepatocyte cells. Description: Hepatocyte toxicity, MTT assay. The settings on record: 9-12 hours; down to 0.5 μM. On the procedure:
Toxicity of compounds to eukaryotic cells was assessed by MTT assay of cultured HepG2 human hepatocyte cells grown in media supplemented with 10% fetal bovine serum and antibiotics.
Human liver HepG2 cells were cultured in 100 mm^2 Falcon tissue culture plates in DMEM with high glucose (4500 mg/L) supplemented with 10% fetal bovine serum, 50 μg/ml streptomycin and 50 IU/ml penicillin at 37° C. and 5% CO2. Cells were cultured to about 70-80% confluence, and then seeded into 96 well plates depending and grown to 70-80% confluence for 2-3 days unless otherwise stated.
Cell viability was determined by MTT [3-(4,5-dimethylthiazol-2-yl)-2,5-diphenyltetrazolium bromide)] assay (Denizot & Lang 1986). Briefly, cells were seeded on 96-well plates and allowed to grow until 70-80% confluence. Prior to the experiment, medium was replaced with KRB containing a desired concentration of the toxin or other reagents and incubated for 9 h to 12 h depending on the experiment at 37° C. […] The resulting formazan was solubilized by the addition of 210 μL detergent solution (50% DMF, 20% SDS) followed by incubation for 4 h at 37° C. and was quantified based on the difference in the absorbance at 570 nm and 650 nm (Mosmann 1983). Results are expressed as viability of toxin treated cells with respect to control cells which were treated under the same conditions except in the absence of the toxin. […]
Background: Tetrazolium dyes change colour on reduction, which living cells bring about.

[5] abbreviates: E. coli and S. aureus, concentration-dependent.

Regarding `NCC(=O)Nc1ccccc1-c1c2nc(c(-c3ccccc3NC(=O)CN)c3ccc([nH]3)c(-c3ccccc3NC(=O)CN)c3nc(c(-c4ccccc4NC(=O)CN)c4ccc1[nH]4)C=C3)C=C2.O=C(O)C(F)(F)F.O=C(O)C(F)(F)F.O=C(O)C(F)(F)F.O=C(O)C(F)(F)F` [Liptin 3e], in data set [1] (setting [5]), the bacterial growth rates result was “reduces bacterial growth rates” and the maximum culture density result is “decreases maximum culture density”. For the same compound, the “antibacterial activity from growth curves” value in data set [1] (one inoculation, BHI) is recorded as “highly bacteriostatic activity”. Moreover, the MIC (as a rule, the lowest concentration that inhibits growth of the organism) against E. Coli (JMR 223-MC4100) is 1 to 2 µM. Also, the “depolarization: fluorescence of 3,3-diethylthiodicabodyanine iodide” value in data set [2] is on record as “increased in a concentration-dependent manner”. Also, in data set [3], the protein synthesis result was “most protein synthesis was effectively disrupted”. Also, in data set [4], the “toxicity (cell viability, MTT)” value is listed as “lack of toxicity”.
